Among the test systems are HCC-2998 colon; HOP-62 NSCLC; HS 578T breast; MDA-MB-231 breast; NCI-H226 lung; OVCAR-5 ovarian; SK-MEL-5 melanoma; SNB-19 CNS; UACC-62 melanoma; SF-539 CNS.
Test in all cases: growth of human tumour cells (NCI), 48 h

Our source for the TGI values is PubChem BioAssay (NCI).

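All cell lines were grown in 96-well plates and treated with compound for 48 hours. TGI: concentration producing complete growth inhibition.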

For the compound `Oc1cccc(-c2cn3cc(C(F)(F)F)ccc3n2)c1`, the TGI with HCC-2998 colon was 54 µM; with HOP-62 NSCLC, above 100 µM; with HS 578T breast, above 100 µM; with MDA-MB-231 breast, above 100 µM; with NCI-H226 lung it was above 100 µM; in the test on OVCAR-5 ovarian, above 100 µM. Further, the results for the TGI in the test on SK-MEL-5 melanoma, in the test on SNB-19 CNS and in the test on UACC-62 melanoma were 56.5 µM, above 100 µM and above 100 µM, respectively.

Consider `NC1(C(=O)O)CCCC1`, for which the TGI in the test with HCC-2998 colon, in the test with HOP-62 NSCLC, in the test on NCI-H226 lung, in the test on OVCAR-5 ovarian, in the test with SF-539 CNS and with SK-MEL-5 melanoma was above 625 µM each time. Further, the results for the TGI in the test on SNB-19 CNS and in the test on UACC-62 melanoma were above 99.1 µM and above 625 µM, respectively.

On to `O=C(OCCC12CC3CC(CC(C3)C1)C2)c1ccc(NCc2cc(O)ccc2O)cc1`, for which the TGI stood at 13.4 µM in the test on HOP-62 NSCLC; 0.542 µM with HS 578T breast; 5.31 µM with MDA-MB-231 breast; 8.62 µM in the test on NCI-H226 lung; 2.08 µM with SF-539 CNS; 2.51 µM in the test on SK-MEL-5 melanoma. Besides, the figures for the TGI in the test on SNB-19 CNS and in the test on UACC-62 melanoma were 3.23 µM and 3.61 µM, respectively.

On to `CCN(CC)CCCC(C)NC(=O)c1ccc2c(c1)C(=O)c1ccccc1C2=O` (centres undefined), for which the TGI was found to be 33.5 µM in the test with HCC-2998 colon; 69.9 µM in the test on HOP-62 NSCLC; 49 µM in the test with NCI-H226 lung; 34.2 µM in the test on OVCAR-5 ovarian; 36 µM with SF-539 CNS; 28.4 µM in the test on SK-MEL-5 melanoma. In addition, the TGI was 55.3 µM in the test with SNB-19 CNS and 39.3 µM with UACC-62 melanoma.

Regarding `C#CCn1c(=O)c(Cl)cn(/C(=C/C(=O)OCC)C(=O)OCC)c1=O`, the TGI with HOP-62 NSCLC is 37.8 µM; in the test with HS 578T breast, above 100 µM; in the test on MDA-MB-231 breast, 35.1 µM; in the test with NCI-H226 lung it was above 59.5 µM; with OVCAR-5 ovarian it was 31.7 µM; in the test on SF-539 CNS, 12.7 µM. Further, the figures for the TGI with SK-MEL-5 melanoma, in the test on SNB-19 CNS and in the test with UACC-62 melanoma were 30.6 µM, above 66.7 µM and 29.8 µM, respectively.

As for `CSCCC(NC(=O)OCc1ccccc1)NC(=O)OCc1ccccc1`, the TGI in the test with HCC-2998 colon, in the test with HOP-62 NSCLC, in the test with HS 578T breast, in the test with MDA-MB-231 breast, with NCI-H226 lung and in the test with OVCAR-5 ovarian was above 100 µM in each case. Moreover, the TGI in the test on SK-MEL-5 melanoma and in the test with SNB-19 CNS was above 100 µM throughout.

Take `O=C1c2ccccc2C(=O)c2c(O)ccc(O)c21`: the TGI in the test with HCC-2998 colon, with HOP-62 NSCLC, in the test on OVCAR-5 ovarian, in the test with SF-539 CNS, in the test on SK-MEL-5 melanoma and in the test with SNB-19 CNS was above 100 µM each time. This compound also displayed a TGI with UACC-62 melanoma above 100 µM.

As to `COC(=O)[C@H](Cc1ccccc1)NP(=O)(O)OCC1C=CC(n2cc(C)c(=O)[nH]c2=O)O1` (some centres undefined), the TGI in the test with HCC-2998 colon, in the test on HOP-62 NSCLC, in the test with HS 578T breast, in the test on MDA-MB-231 breast, in the test with NCI-H226 lung and with OVCAR-5 ovarian was above 100 µM in each case. Further, the TGI in the test on SK-MEL-5 melanoma, in the test on SNB-19 CNS and with UACC-62 melanoma was above 100 µM in each case.

On to `CC(NC(C#N)CC12CC3CC(CC(C3)C1)C2)c1ccccc1` (centres undefined), for which the TGI with HCC-2998 colon, in the test with HOP-62 NSCLC, with MDA-MB-231 breast, in the test on OVCAR-5 ovarian, in the test on SK-MEL-5 melanoma and with SNB-19 CNS was above 100 µM throughout. The same compound registered a TGI in the test on UACC-62 melanoma above 100 µM.

`N#Cc1ccc(Oc2nc3ccc(C(F)(F)F)cc3nc2-c2ccccc2)cc1`: the TGI with HCC-2998 colon stood at 32.3 µM; in the test on HOP-62 NSCLC it was 36 µM; with HS 578T breast, 44.5 µM; in the test on MDA-MB-231 breast, 36.8 µM; with OVCAR-5 ovarian it was 26.2 µM; in the test with SF-539 CNS, 89.3 µM. For the same compound, the TGI was 46.5 µM in the test on SK-MEL-5 melanoma, 41.2 µM in the test on SNB-19 CNS and above 100 µM with UACC-62 melanoma.

Turning to `CC[C@@]12C=CC(=S)N(CCSc3ccccc3)[C@@H]1c1c(n(S(=O)(=O)c3ccc(OC)cc3)c3ccccc13)CC2`, the TGI in the test on HCC-2998 colon, with HOP-62 NSCLC, in the test on HS 578T breast, in the test with MDA-MB-231 breast, with OVCAR-5 ovarian and in the test on SF-539 CNS was above 100 µM throughout. Moreover, the TGI in the test on SK-MEL-5 melanoma, in the test on SNB-19 CNS and in the test on UACC-62 melanoma was above 100 µM throughout.

`C#CC(O)/C=C/C(O)CCCC(O)CC#CC(O)C#CC(O)CCCC(O)/C=C/CCCC(=O)CCCCCCCCCCCCCCCC(O)C(O)C#CC(=O)O` (centres undefined): the TGI in the test on HCC-2998 colon, with HOP-62 NSCLC, with HS 578T breast, in the test on MDA-MB-231 breast, in the test with NCI-H226 lung and with OVCAR-5 ovarian was above 50 µM throughout. Also, the TGI in the test on SK-MEL-5 melanoma, in the test on SNB-19 CNS and with UACC-62 melanoma was above 50 µM throughout.

With `CCCCCCC(C)OC(=O)/C=C(\CC(=O)OC(C)CCCCCC)C(=O)OC(C)CCCCCC` (centres undefined), the TGI in the test on HCC-2998 colon, with HOP-62 NSCLC, in the test with NCI-H226 lung, with OVCAR-5 ovarian, in the test on SF-539 CNS and in the test on SK-MEL-5 melanoma was above 100 µM each time. Further, the TGI in the test with UACC-62 melanoma was above 100 µM.

With `CCSc1nc(N)c2c(-c3ccccc3)c3c(nc2n1)CCC3`, the TGI with HOP-62 NSCLC was above 100 µM; in the test with HS 578T breast, above 100 µM; in the test on MDA-MB-231 breast, above 100 µM; in the test with OVCAR-5 ovarian it was above 100 µM; in the test with SF-539 CNS, 53 µM; in the test on SK-MEL-5 melanoma, above 100 µM. For the same compound, the TGI in the test on SNB-19 CNS and with UACC-62 melanoma was above 100 µM throughout.

As for `CC(C)OC(=O)[C@@H](O)[C@H](CO)C1=CC([Si](C)(C)c2ccccc2)=CON1`, the TGI with HCC-2998 colon, in the test on HOP-62 NSCLC, in the test on MDA-MB-231 breast, with NCI-H226 lung, in the test on OVCAR-5 ovarian and in the test with SF-539 CNS was above 100 µM in each case. Moreover, the TGI in the test with SK-MEL-5 melanoma, in the test with SNB-19 CNS and in the test with UACC-62 melanoma was above 100 µM each time.
